What all share (type): biochemical
The target of assay [1] is T1, PPM1B (Homo sapiens, UniProt O75688).
T1 construct: inferred from pET-28a vector and Ni-NTA purification; made in house; host or cells: Escherichia coli BL21
T1 sequence (O75688 1-479): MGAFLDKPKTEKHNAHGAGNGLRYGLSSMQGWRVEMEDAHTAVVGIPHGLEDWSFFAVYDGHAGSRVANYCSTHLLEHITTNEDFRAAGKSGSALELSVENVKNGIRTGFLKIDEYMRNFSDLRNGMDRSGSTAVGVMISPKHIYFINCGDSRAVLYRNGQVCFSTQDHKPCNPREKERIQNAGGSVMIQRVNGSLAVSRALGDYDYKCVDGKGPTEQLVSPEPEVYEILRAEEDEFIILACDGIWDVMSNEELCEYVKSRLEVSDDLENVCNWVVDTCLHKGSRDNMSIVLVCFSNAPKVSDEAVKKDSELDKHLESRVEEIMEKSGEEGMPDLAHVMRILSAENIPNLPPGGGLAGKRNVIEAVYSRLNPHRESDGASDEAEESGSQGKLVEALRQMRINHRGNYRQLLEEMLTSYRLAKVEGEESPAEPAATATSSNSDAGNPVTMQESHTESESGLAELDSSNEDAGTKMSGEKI
Kind of assay: pNPP hydrolysis phosphatase kinetic assay. The method, then:
Escherichia coli BL21 strain was transformed with pET‐28a bacterial expression vector harbouring PPM1B and its mutants. ^17 The fusion proteins were induced to be expressed with 0.5 mM isopropyl‐β‐D‐thiogalactoside (IPTG) and purified from bacterial lysate by Ni‐NTA chromatographic matrices (Qiagen) and AKTA FPLC (GE Healthcare Life Sciences) using a Superdex Increase 200 column.
(§1) The kinetic assays of PPM1B were carried out at 37°C in 0.1 M acetic acid buffer (50 mM Tris, 40 mM Mn^2+, pH 7.0). The p‐nitrophenyl phosphate (pNPP, Sigma) was used as the substrate which could be conveniently measured at 405 nm. Reactions were started by addition of pNPP to a reaction mixture containing PPM1B (0.4 μM PPM1B, final concentration) and various concentrations of HN252 and stopped by addition of 0.5 M EDTA (pH 10.0) after an appropriate time. The Km value of PPM1B towards pNPP hydrolysis (3.6 mM for pNPP) was used to determine the IC50. The IC50 values, the inhibition constant Ki and inhibition pattern were evaluated as previously described. ^18 The kinetic assays of HN252 towards to other protein phosphatases were carried out as previously described. ^19

Assay [2] addresses T2, LYP (Homo sapiens, UniProt Q9Y2R2).
T2 sequence (Q9Y2R2 1-807): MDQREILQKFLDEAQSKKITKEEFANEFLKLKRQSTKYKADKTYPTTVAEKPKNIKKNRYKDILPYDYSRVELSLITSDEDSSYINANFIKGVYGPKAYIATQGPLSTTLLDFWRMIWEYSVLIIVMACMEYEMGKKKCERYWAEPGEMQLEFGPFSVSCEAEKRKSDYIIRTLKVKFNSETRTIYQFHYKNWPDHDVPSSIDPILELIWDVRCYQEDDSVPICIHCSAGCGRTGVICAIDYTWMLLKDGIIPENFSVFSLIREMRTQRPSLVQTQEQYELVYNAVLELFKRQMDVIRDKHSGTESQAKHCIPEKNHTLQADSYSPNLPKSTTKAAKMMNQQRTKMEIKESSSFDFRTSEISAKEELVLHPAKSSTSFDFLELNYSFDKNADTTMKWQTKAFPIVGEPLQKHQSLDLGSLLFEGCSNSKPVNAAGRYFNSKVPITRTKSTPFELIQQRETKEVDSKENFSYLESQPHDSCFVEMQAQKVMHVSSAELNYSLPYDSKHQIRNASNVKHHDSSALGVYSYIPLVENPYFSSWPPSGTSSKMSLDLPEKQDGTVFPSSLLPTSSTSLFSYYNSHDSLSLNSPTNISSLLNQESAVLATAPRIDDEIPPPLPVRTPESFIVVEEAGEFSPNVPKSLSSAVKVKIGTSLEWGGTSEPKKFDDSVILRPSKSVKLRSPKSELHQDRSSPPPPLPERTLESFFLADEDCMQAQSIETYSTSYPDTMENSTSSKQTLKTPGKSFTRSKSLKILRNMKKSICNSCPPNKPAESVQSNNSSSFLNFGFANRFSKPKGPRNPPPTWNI
Put plainly: pNPP hydrolysis phosphatase assay (selectivity panel). The following applies: pNPP as substrate.

The target of assay [3] is T3, SSH1 (Homo sapiens, UniProt Q8WYL5).
T3 sequence (Q8WYL5 1-1049): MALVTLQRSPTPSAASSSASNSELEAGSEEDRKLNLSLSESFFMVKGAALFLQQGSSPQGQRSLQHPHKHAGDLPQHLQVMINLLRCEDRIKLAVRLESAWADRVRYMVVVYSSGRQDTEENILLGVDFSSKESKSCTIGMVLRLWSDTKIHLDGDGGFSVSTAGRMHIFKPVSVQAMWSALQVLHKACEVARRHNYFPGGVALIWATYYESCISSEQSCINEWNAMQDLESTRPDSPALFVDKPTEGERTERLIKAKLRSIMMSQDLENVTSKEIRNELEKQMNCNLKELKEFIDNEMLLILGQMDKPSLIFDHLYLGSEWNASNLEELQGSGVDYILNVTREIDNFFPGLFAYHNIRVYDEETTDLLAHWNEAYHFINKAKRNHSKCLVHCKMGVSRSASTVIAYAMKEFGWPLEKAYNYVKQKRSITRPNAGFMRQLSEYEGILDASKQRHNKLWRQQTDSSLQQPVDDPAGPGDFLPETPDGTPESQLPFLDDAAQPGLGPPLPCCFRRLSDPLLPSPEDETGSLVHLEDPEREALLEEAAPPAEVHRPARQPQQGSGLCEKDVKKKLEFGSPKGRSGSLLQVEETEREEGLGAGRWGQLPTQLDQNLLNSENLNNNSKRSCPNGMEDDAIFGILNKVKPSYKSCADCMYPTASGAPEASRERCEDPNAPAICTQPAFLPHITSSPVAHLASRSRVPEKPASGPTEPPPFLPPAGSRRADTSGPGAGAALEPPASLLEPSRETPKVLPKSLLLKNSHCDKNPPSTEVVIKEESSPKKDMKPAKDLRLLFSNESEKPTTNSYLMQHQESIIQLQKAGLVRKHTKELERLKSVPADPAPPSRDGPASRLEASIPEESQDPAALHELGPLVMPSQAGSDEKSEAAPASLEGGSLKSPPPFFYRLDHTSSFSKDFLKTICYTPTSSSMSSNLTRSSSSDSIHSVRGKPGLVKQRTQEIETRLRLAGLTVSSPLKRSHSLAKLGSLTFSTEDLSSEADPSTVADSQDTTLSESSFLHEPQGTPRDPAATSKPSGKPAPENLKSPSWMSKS
Described as above. The following applies: pNPP as substrate. How it is done: as §1

“Also recorded” adds a separate entry of the source.

One may read the Ki as the equilibrium dissociation constant of an inhibitor or competing ligand from its target. High values mean lower affinity, low ones higher affinity. One may read the IC50 as the concentration that gives 50% inhibition. Take `Nc1cc(-c2ccc(-c3ccc(O)c(O)c3)cc2)ccc1C(=O)O` [HN252]: in assay [1] (Lineweaver-Burk plot, pNPP hydrolysis, pH 7.0, 37°C), the inhibition pattern result is “competitive inhibition; also recorded: classical competitive inhibitor”. Further, the Ki in assay [1] (Lineweaver-Burk, pNPP, pH 7.0, 37°C, 0.4 μM PPM1B, 40 mM Mn2+) came out at 0.52 ± 0.06 µM. In addition, the IC50 turned out to be 0.76 µM in assay [1] (pNPP substrate, 0.4 μM PPM1B, 40 mM Mn2+, pH 7.0, 37°C, wild type); 98.2 ± 11.7 µM in assay [2]; 54.6 ± 13 µM in assay [3]. For the same compound, the “selectivity: increase in potency against PPM1B than other PSPs” value in assay [1] (versus PPM1F, PPM1G, PPM1K, PHLPP2, PPM1A a notable exception) is “about 30 fold”.
